Laboratory results taken from patent publication EP0377642B1, “HERBICIDES FOR WEED CONTROL IN RICE” (E.I. DU PONT DE NEMOURS AND COMPANY, priority 1987, dated 1989).

Experiments:
Type in all cases: in vivo
[1] = tested on: rice; assay: Effects in combination with Thiobencarb and Bensulfuron Methyl on rice growth (Table 22); details: var. Koshihikari, applied 7 days after transplanting, rated 21 days after application
Excerpt: (§1) Methyl 2-[[[[(4-methoxy-6-methyl-1,3,5-triazin-2-yl)amino]carbonyl]amino]sulfonyl]benzoate (Compound 1) and mixtures thereof with other compounds were applied as a spray (using a hand sprayer) to rice (either transplanted or direct seeded) in several rice growing areas in Southeast Asia and in the U.S. Tables 1-28 contain the results of these tests and clearly exemplify the utility of this invention. The details of each application are included in the appropriate table. [drawing 2]

[2] = tested on: FIMBRISTYLIS MILIACEA; assay: Herbicidal efficacy alone and with 2,4-D in Thailand (Table 3); details: 600 GAI/HA, 6 weeks after application
Excerpt: as §1

[3] = tested on: transplanted rice (var. Nihonbare); assay: Crop tolerance of transplanted rice, combinations with Thiobencarb, Dimepiperate, Esprocarb and Dymron (Table 15)
Excerpt: as §1

[4] = tested on: WEED; assay: Effects in combination with Bensulfuron Methyl and Thiobencarb or Pretilachlor on weed control (Table 24); details: scale 0 to 10, treated at 1.0 leaf stage, evaluated four weeks later; for WEED CONTROL RATINGS CD: Cyperus difformis; for WEED CONTROL RATINGS CS: Cyperus serotinus; for WEED CONTROL RATINGS EO: Echinochloa oryzicola; for WEED CONTROL RATINGS BL: Lindernia pyxidaria; for WEED CONTROL RATINGS MV: Monochoria vaginalis; for WEED CONTROL RATINGS SP: Sagittaria pygmaea; for WEED CONTROL RATINGS SJ: Scirpus juncoides
Excerpt: as §1

[5] = tested on: WEED; assay: Effects in combination with Bensulfuron Methyl and Thiobencarb or Pretilachlor on weed control (Table 25); details: scale 0 to 10, treated at 2.0 leaf stage, evaluated four weeks later; for WEED CONTROL RATINGS CD: Cyperus difformis; for WEED CONTROL RATINGS CS: Cyperus serotinus; for WEED CONTROL RATINGS EO: Echinochloa oryzicola; for WEED CONTROL RATINGS BL: Lindernia pyxidaria; for WEED CONTROL RATINGS MV: Monochoria vaginalis; for WEED CONTROL RATINGS SP: Sagittaria pygmaea; for WEED CONTROL RATINGS SJ: Scirpus juncoides
Excerpt: as §1

[6] = tested on: weeds; assay: Greenhouse test of Compound 1 and Compound 2, herbicidal efficacy (Table 26); details: rated 24 days after treatment; for % CONTROL OR INJURY AT: Alisma triviale; for % CONTROL OR INJURY AP: Alternanthera philoxeroides; for % CONTROL OR INJURY CD: Cyperus difformis; for % CONTROL OR INJURY SR: Sagittaria rigida
Excerpt: as §1

[7] = tested on: rice; assay: Effects in combination with Bensulfuron Methyl and Thiobencarb or Pretilachlor on rice growth (Table 23); details: var. Koshihikari, applied 7 days after transplanting, rated 21 days after application
Excerpt: as §1

[8] = 2100 GAI/HA, 15 days after application

COC(=O)c1ccccc1CS(=O)(=O)NC(=O)Nc1nc(OC)cc(OC)n1 was tested, and the “CROP TOLERANCE DW (Dry weight relative to untreated check)” value ([1]; rate 75 g ai/ha) was 76%, the “CROP TOLERANCE PH (Plant height relative to untreated check)” value ([1]; rate 75 g ai/ha) was 84% and the “CROP TOLERANCE VA (Visual crop injury)” value ([1]; rate 75 g ai/ha) was 3.5%.
In the case of CCCCOC(=O)COc1ccc(Cl)cc1Cl [2,4-D (BUTYL ESTER), reference compound], the “FIMBRISTYLIS MILIACEA CONTROL” value ([2]; applied 7 DAS) is reported as 94%, the “FIMBRISTYLIS MILIACEA CONTROL” value ([2]; applied 14 DAS) is reported as 98% and the “FIMBRISTYLIS MILIACEA CONTROL” value ([2]; applied 21 DAS) is reported as 60%. For the same molecule, the “FIMBRISTYLIS MILIACEA CONTROL” value ([2]; applied 28 DAS) was 43%.
In the case of Cc1ccc(NC(=O)NC(C)(C)c2ccccc2)cc1 [Dymron, 1-(α,α-dimethylbenzyl)-3-p-tolylurea], the “CROP TOLERANCE (Nihonbare) DW, dry weight relative to untreated check” value [3, 8] is reported as 107%, the “CROP TOLERANCE (Nihonbare) PH, plant height relative to untreated check” value [3, 8] is reported as 102% and the “CROP TOLERANCE (Nihonbare) VA, visual crop injury” value (“CROP TOLERANCE (Nihonbare) VA” for short) [3, 8] is reported as 0%.
CCCOCCN(C(=O)CCl)c1c(CC)cccc1CC [PRETILACHLOR] was tested, and the “WEED CONTROL RATINGS CD” value ([4]; rate 600 g ai/ha) was 10, the “WEED CONTROL RATINGS CS” value ([4]; rate 600 g ai/ha) was 3 and the “WEED CONTROL RATINGS EO” value ([4]; rate 600 g ai/ha) was 10. The “WEED CONTROL RATINGS BL” value ([4]; rate 600 g ai/ha) was 10, the “WEED CONTROL RATINGS MV” value ([4]; rate 600 g ai/ha) was 5 and the “WEED CONTROL RATINGS SP” value ([4]; rate 600 g ai/ha) was 3. For the same molecule, the “WEED CONTROL RATINGS SJ” value ([4]; rate 600 g ai/ha) was 5, the “WEED CONTROL RATINGS CD” value ([5]; rate 600 g ai/ha) was 10 and the “WEED CONTROL RATINGS CS” value ([5]; rate 600 g ai/ha) was 3. The “WEED CONTROL RATINGS EO” value ([5]; rate 600 g ai/ha) was 7, the “WEED CONTROL RATINGS BL” value ([5]; rate 600 g ai/ha) was 7 and the “WEED CONTROL RATINGS MV” value ([5]; rate 600 g ai/ha) was 3. For the same molecule, the “WEED CONTROL RATINGS SP” value ([5]; rate 600 g ai/ha) was 6 and the “WEED CONTROL RATINGS SJ” value ([5]; rate 600 g ai/ha) was 2.
For COC(=O)c1ccccc1S(=O)(=O)NC(=O)Nc1nc(OC)cc(OC)n1 [Compound 2, methyl 2-[[[[(4,6-dimethoxy-2-pyrimidinyl)amino]carbonyl]amino]sulfonyl]benzoate], the “% CONTROL OR INJURY AT” value ([6]; rate 1 g ai/ha) was 95%, the “% CONTROL OR INJURY AT” value ([6]; rate 2 g ai/ha) was 95% and the “% CONTROL OR INJURY AT” value ([6]; rate 4 g ai/ha) was 95%. The “% CONTROL OR INJURY AT” value ([6]; rate 8 g ai/ha) was 95%, the “% CONTROL OR INJURY AP” value ([6]; rate 1 g ai/ha) was 0% and the “% CONTROL OR INJURY AP” value ([6]; rate 2 g ai/ha) was 0%. For the same molecule, the “% CONTROL OR INJURY AP” value ([6]; rate 4 g ai/ha) was 20%, the “% CONTROL OR INJURY AP” value ([6]; rate 8 g ai/ha) was 30% and the “% CONTROL OR INJURY CD” value ([6]; rate 1 g ai/ha) was 70%. For the same molecule, the “% CONTROL OR INJURY CD” value ([6]; rate 2 g ai/ha) was 80%, the “% CONTROL OR INJURY CD” value ([6]; rate 4 g ai/ha) was 100% and the “% CONTROL OR INJURY CD” value ([6]; rate 8 g ai/ha) was 100%. The “% CONTROL OR INJURY SR” value ([6]; rate 1 g ai/ha) was 0%, the “% CONTROL OR INJURY SR” value ([6]; rate 2 g ai/ha) was 0% and the “% CONTROL OR INJURY SR” value ([6]; rate 4 g ai/ha) was 80%. The “% CONTROL OR INJURY SR” value ([6]; rate 8 g ai/ha) was 80%.
For CCN(C(=O)SCc1ccccc1)C(C)C(C)C (centres unmarked) [Esprocarb, S-benzyl-N-ethyl-N-(1,2-dimethyl)-propylthiol carbamate], the “CROP TOLERANCE (Nihonbare) DW, dry weight relative to untreated check” value [3, 8] was 94%, the “CROP TOLERANCE (Nihonbare) PH, plant height relative to untreated check” value [3, 8] was 92% and the “CROP TOLERANCE (Nihonbare) VA” value [3, 8] was 0%.
With CCCOCCN(C(=O)CCl)c1c(CC)cccc1CC [Pretilachlor] the “CROP TOLERANCE DW (Dry weight relative to untreated check)” value ([7]; rate 600 g ai/ha) was 71%, the “CROP TOLERANCE PH (Plant height relative to untreated check)” value ([7]; rate 600 g ai/ha) was 87% and the “CROP TOLERANCE VA (Visual crop injury)” value ([7]; rate 600 g ai/ha) was 3%.
CCN(CC)C(=O)SCc1ccc(Cl)cc1 [Thiobencarb, S-[(4-chlorophenyl)methyl]diethylcarbamothioate, reference compound] was tested, and the “WEED CONTROL RATINGS CD” value ([4]; rate 2100 g ai/ha) was 10, the “WEED CONTROL RATINGS CS” value ([4]; rate 2100 g ai/ha) was 9 and the “WEED CONTROL RATINGS EO” value ([4]; rate 2100 g ai/ha) was 10. For the same molecule, the “WEED CONTROL RATINGS BL” value ([4]; rate 2100 g ai/ha) was 9, the “WEED CONTROL RATINGS MV” value ([4]; rate 2100 g ai/ha) was 10 and the “WEED CONTROL RATINGS SP” value ([4]; rate 2100 g ai/ha) was 0. The “WEED CONTROL RATINGS SJ” value ([4]; rate 2100 g ai/ha) was 7, the “CROP TOLERANCE DW (Dry weight relative to untreated check)” value ([7]; rate 2100 g ai/ha) was 81% and the “CROP TOLERANCE PH (Plant height relative to untreated check)” value ([7]; rate 2100 g ai/ha) was 93%. The “CROP TOLERANCE VA (Visual crop injury)” value ([7]; rate 2100 g ai/ha) was 2%, the “WEED CONTROL RATINGS CD” value ([5]; rate 2100 g ai/ha) was 10 and the “WEED CONTROL RATINGS CS” value ([5]; rate 2100 g ai/ha) was 2. For the same molecule, the “WEED CONTROL RATINGS EO” value ([5]; rate 2100 g ai/ha) was 6, the “WEED CONTROL RATINGS BL” value ([5]; rate 2100 g ai/ha) was 9.5 and the “WEED CONTROL RATINGS MV” value ([5]; rate 2100 g ai/ha) was 10. The “WEED CONTROL RATINGS SP” value ([5]; rate 2100 g ai/ha) was 0, the “WEED CONTROL RATINGS SJ” value ([5]; rate 2100 g ai/ha) was 8.5 and the “CROP TOLERANCE (Nihonbare) DW, dry weight relative to untreated check” value [3, 8] was 112%. The “CROP TOLERANCE (Nihonbare) PH, plant height relative to untreated check” value [3, 8] was 102%, the “CROP TOLERANCE (Nihonbare) VA” value [3, 8] was 0% and the “CROP TOLERANCE DW (Dry weight relative to untreated check)” value ([1]; rate 2100 g ai/ha) was 99%. The “CROP TOLERANCE PH (Plant height relative to untreated check)” value ([1]; rate 2100 g ai/ha) was 99% and the “CROP TOLERANCE VA (Visual crop injury)” value ([1]; rate 2100 g ai/ha) was 0%.
With CC(C)(SC(=O)N1CCCCC1)c1ccccc1 [Dimepiperate, S-1-methyl-1-phenylethylpiperidine-1-carbothioate] the “CROP TOLERANCE (Nihonbare) PH, plant height relative to untreated check” value ([3]; in vivo) was 102% and the “CROP TOLERANCE (Nihonbare) VA” value ([3]; in vivo) was 0%.
